The values below come from ChEMBL document CHEMBL1909046, “DrugMatrix in vitro pharmacology data”.

For assay [1], the target named is Aldo-keto reductase family 1 member B1 (Rattus norvegicus, UniProt P07943). Briefly: biochemical. The format is tissue-based, Lens of camera-type eye.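 Further: inhibition of aldose reductase enzyme activity, measured with DL-glyceraldehyde as the substrate; in other assays of this panel Not Active means under 50% inhibition at 10 µM.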
Assay [2] is described as follows: DRUGMATRIX: Calcium Channel Type L, Phenylalkylamine radioligand binding (ligand: [3H] (-)-Desmethoxyverapamil (D-888)). The format is cell membranes, Rattus norvegicus, Wistar, Brain, Membrane. The note with it: Not Active = under 50% inhibition at 10 µM.
Assay [3] is described as follows: DRUGMATRIX: GABAA, Flunitrazepam, Central radioligand binding (ligand: [3H] Flunitrazepam). The format is cell membranes, Rattus norvegicus, Wistar, Brain, Membrane. The note with it: Not Active = under 50% inhibition at 10 µM.
Assay [4] deals with T1, 3-hydroxy-3-methylglutaryl-coenzyme A reductase (Homo sapiens, UniProt P04035).
T1 sequence (P04035 whole entry): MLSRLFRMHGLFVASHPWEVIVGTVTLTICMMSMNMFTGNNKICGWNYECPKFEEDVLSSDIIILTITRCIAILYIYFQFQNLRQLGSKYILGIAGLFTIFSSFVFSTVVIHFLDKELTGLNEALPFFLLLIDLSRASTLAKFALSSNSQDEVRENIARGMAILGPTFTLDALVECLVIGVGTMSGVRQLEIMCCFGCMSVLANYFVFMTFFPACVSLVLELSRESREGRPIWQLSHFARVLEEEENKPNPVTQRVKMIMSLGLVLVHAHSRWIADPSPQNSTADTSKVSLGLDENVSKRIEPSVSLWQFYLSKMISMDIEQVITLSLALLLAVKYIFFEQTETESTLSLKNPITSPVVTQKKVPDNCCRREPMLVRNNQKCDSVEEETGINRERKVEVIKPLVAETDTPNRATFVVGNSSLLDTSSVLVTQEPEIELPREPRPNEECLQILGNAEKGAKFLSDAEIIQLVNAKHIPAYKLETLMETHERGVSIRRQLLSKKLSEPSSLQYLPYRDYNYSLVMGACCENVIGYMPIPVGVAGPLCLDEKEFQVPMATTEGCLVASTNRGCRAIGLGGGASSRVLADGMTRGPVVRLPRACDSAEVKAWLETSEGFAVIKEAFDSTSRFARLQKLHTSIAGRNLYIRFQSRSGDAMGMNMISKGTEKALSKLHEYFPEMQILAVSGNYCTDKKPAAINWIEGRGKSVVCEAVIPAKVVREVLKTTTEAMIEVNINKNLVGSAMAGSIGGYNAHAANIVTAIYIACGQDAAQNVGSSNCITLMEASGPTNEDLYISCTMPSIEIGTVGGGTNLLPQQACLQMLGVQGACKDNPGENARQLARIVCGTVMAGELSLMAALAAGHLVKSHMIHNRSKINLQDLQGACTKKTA
Details: species or system Escherichia coli.

For assay [5], the target named is Mitogen-activated protein kinase 14 (Homo sapiens, UniProt Q16539). Details: species or system Escherichia coli.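 Further: inhibition of p38alpha enzyme activity in a biochemical kinase assay, with myelin basic protein serving as substrate; in other assays of this panel Not Active means under 50% inhibition at 10 µM.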
Sequence of Mitogen-activated protein kinase 14 (Q16539 whole entry): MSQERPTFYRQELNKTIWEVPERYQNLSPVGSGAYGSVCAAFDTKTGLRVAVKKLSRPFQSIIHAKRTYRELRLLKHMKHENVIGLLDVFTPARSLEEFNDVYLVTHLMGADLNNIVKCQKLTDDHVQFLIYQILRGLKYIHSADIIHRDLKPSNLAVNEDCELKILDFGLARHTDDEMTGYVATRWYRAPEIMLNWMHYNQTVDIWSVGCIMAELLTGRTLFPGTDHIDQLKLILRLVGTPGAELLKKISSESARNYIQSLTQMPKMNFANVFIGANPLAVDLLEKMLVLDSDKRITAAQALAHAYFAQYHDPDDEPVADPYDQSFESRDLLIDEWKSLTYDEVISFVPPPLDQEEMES
Assay [6] can be described thus: DRUGMATRIX: Purinergic P2X radioligand binding (ligand: [3H] alpha, beta-Methylene-ATP). The format is cell membranes, Oryctolagus cuniculus, New Zealand albino, Urinary bladder, Membrane. To be noted: Not Active = under 50% inhibition at 10 µM.

Turning to `COc1ccccc1N`, the IC50 entry in assay [1], in assay [2], in assay [3], in assay [4], in assay [5] and in assay [6] was “Not Active” each time. Further, the Ki entry in assay [2], in assay [3] and in assay [6] was “Not Active” in each case.
As for `Cc1c(O)cccc1C(=O)N[C@@H](CSc1ccccc1)[C@H](O)CN1C[C@H]2CCCC[C@H]2C[C@H]1C(=O)NC(C)(C)C`, the half-maximal inhibitory concentration (IC50) entry in assay [1] is “Not Active”; in assay [2] (read-out: IC50), 18.4 µM; in assay [3], “Not Active”; in assay [4] it was “Not Active”; in assay [5] (read-out: IC50), 18.2 µM; in assay [6], “Not Active”. Besides, the Ki is 17.9 µM in assay [2] (read-out: Ki), “Not Active” in assay [3] and “Not Active” in assay [6].
For the compound `NC12CC3CC(CC(C3)C1)C2` [AMANTADINE], the IC50 result in assay [1], in assay [2], in assay [3], in assay [4], in assay [5] and in assay [6] was “Not Active” in each case. Further, the Ki result in assay [2], in assay [3] and in assay [6] was “Not Active” throughout.
For `CC(C)c1c(C(=O)Nc2ccccc2)c(-c2ccccc2)c(-c2ccc(F)cc2)n1CC[C@@H](O)C[C@@H](O)CC(=O)O` [ATORVASTATIN], the IC50 result in assay [1], in assay [2], in assay [3], in assay [5] and in assay [6] was “Not Active” throughout. Besides, the Ki result in assay [2], in assay [3] and in assay [6] was “Not Active” in each case.
Take `COc1cc(OC)c(C(=O)CCCN2CCCC2)c(OC)c1` [BUFLOMEDIL]: the half-maximal inhibitory concentration (IC50) entry in assay [1], in assay [2], in assay [3], in assay [4], in assay [5] and in assay [6] was “Not Active” each time. Further, the Ki result in assay [2], in assay [3] and in assay [6] was “Not Active” throughout.
Take `Cn1c(=O)c2c(ncn2C)n(C)c1=O` [CAFFEINE]: the IC50 entry in assay [1], in assay [2], in assay [3], in assay [4], in assay [5] and in assay [6] was “Not Active” throughout. Further, the inhibitory constant (Ki) result in assay [2], in assay [3] and in assay [6] was “Not Active” in each case.
For the compound `CC(C)NCC(O)c1ccccc1Cl` (centres undefined) [CLORPRENALINE], the IC50 entry in assay [1], in assay [2], in assay [3], in assay [4], in assay [5] and in assay [6] was “Not Active” in each case. The Ki entry in assay [2], in assay [3] and in assay [6] was “Not Active” in each case.
On to `C[S+](C)[O-]` [DIMETHYL SULFOXIDE], for which the IC50 result in assay [1], in assay [2], in assay [3], in assay [4], in assay [5] and in assay [6] was “Not Active” in each case. Besides, the Ki result in assay [2], in assay [3] and in assay [6] was “Not Active” throughout.
Turning to `CC(O)(P(=O)(O)O)P(=O)(O)O` [ETIDRONIC ACID], the IC50 result in assay [1], in assay [2], in assay [3], in assay [4], in assay [5] and in assay [6] was “Not Active” each time. The Ki entry in assay [2], in assay [3] and in assay [6] was “Not Active” throughout.
For the compound `CCOC(=O)c1ncn2c1CN(C)C(=O)c1cc(F)ccc1-2` [FLUMAZENIL], the IC50 entry was “Not Active” in assay [1]; “Not Active” in assay [2]; 0.00387 µM in assay [3] (read-out: IC50); “Not Active” in assay [4]; “Not Active” in assay [5]; “Not Active” in assay [6]. For the same compound, the values for the Ki result in assay [2], in assay [3] (read-out: Ki) and in assay [6] were “Not Active”, 0.00315 µM and “Not Active”, respectively.
